Reference: patent US20150344457A1, “METHODS OF INHIBITING PRMT5” (EPIZYME, INC., priority 2012, published 2015)

Legend:
Z-138 cells [1] = experiment: Z-138 Methylation Assay (In Cell Western for symmetric di-methyl arginine and DNA content); format: cell-based; conditions: Homo sapiens, Table D-2, read-out: ICW EC50
Procedure, shortened: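 Z-138 cells at 50,000 cells/mL exposed to compound 96 h at 37 °C, then attached to poly-D-lysine plates, fixed with paraformaldehyde and probed with anti-symmetric di-methyl arginine plus DRAQ5 DNA stain. 800/700 nm ratio normalized to DMSO and 3 μM reference controls; IC50 from triplicate wells.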

Z-138 cells [2] = experiment: Z-138 Proliferation Assay (Cell Titer Glo, 5 days); format: cell-based; conditions: Homo sapiens, Table D-2
Procedure, shortened: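 Exponentially growing Z-138 cells (10,000 cells/ml) in RPMI 1640 with 10% FBS are exposed to nine-point 3-fold dilutions (final top concentration 20 μM, 0.2% DMSO) for 5 days at 37° C. Viability is measured as ATP by CellTiter-Glo luminescence. The 50% inhibitory concentration comes from a 4-parameter fit.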

Row | SMILES | EC50 (Z-138 cells [1]) [nM] | EC50 (Z-138 cells [2]) [µM]
1 | OC(CNc1cc(-c2ncc3ccn(C4CCNCC4)c3n2)ccn1)CN1CCc2ccccc2C1 (stereo not drawn) [Compound D255] | < 100 | 0.101 to 1
2 | CNC(=O)Cn1cnc2ccc(-c3cccc(OCC(O)CN4CCc5ccccc5C4)c3)cc21 (stereo not drawn) [Compound D262] | 1000 to 10000 | 1 to 10
3 | OC(CNc1cc(-c2ccc3ncn(C4COC4)c3c2)ccn1)CN1CCc2ccccc2C1 (stereo not drawn) [Compound D265] | 101 to 1000 | 1 to 10
4 | Cc1ncc2ccc(-c3cccc(OCC(O)CN4CCc5ccccc5C4)c3)cn12 (stereo not drawn) [Compound D266] | 1000 to 10000 | 1 to 10
5 | CN1CCN(C(=O)Cn2cnc3ccc(-c4cccc(OCC(O)CN5CCc6ccccc6C5)c4)cc32)CC1 (stereo not drawn) [Compound D270] | 101 to 1000 | 10 to 40
6 | Cn1cnc2ccc(-c3cc(NCC(O)CN4CCc5ccccc5C4)n[nH]3)cc21 (stereo not drawn) [Compound D271] | 101 to 1000 | > 20
7 | Cn1cnc2ccc(-c3ccnc(NC[C@H](O)CN4CCc5ccccc5C4)c3)cc21 [Compound D275] | 101 to 1000 | 1 to 10

Second part, led by results:

Row | EC50 (Z-138 cells [1]) [nM] | SMILES | EC50 (Z-138 cells [2]) [µM]
8 | < 100 | CC(=O)N1CCC(n2ccc3cnc(-c4ccnc(NCC(O)CN5CCc6ccccc6C5)c4)nc32)CC1 (stereo not drawn) [Compound D256] | 0.101 to 1
9 | 101 to 1000 | O[C@@H](COc1cccc(-c2cccc3cccnc23)c1)CN1CCc2ccccc2C1 [Compound D257] | 1 to 10
10 | 101 to 1000 | Cn1cc2ccc(-c3cccc(NCC(O)CN4CCc5ccccc5C4)c3)nc2n1 (stereo not drawn) [Compound D261] | 10 to 40
11 | 101 to 1000 | O=C(Cn1cnc2ccc(-c3cccc(OCC(O)CN4CCc5ccccc5C4)c3)cc21)N1CCCC1 (stereo not drawn) [Compound D263] | 10 to 40
12 | 1000 to 10000 | O=C(Cn1cnc2ccc(-c3cccc(OCC(O)CN4CCc5ccccc5C4)c3)cc21)N1CCOCC1 (stereo not drawn) [Compound D264] | 1 to 10
13 | 101 to 1000 | OC(COc1cccc(-c2ccc3ncn(C4COC4)c3c2)c1)CN1CCc2ccccc2C1 (stereo not drawn) [Compound D269] | 10 to 40
14 | 101 to 1000 | Cn1cnc2cc(-c3cc(NCC(O)CN4CCc5ccccc5C4)n[nH]3)ccc21 (stereo not drawn) [Compound D272] | 1 to 10
15 | 101 to 1000 | CC(=O)N(CC(O)CN1CCc2ccccc2C1)c1cccc(-c2ccc3ncn(C)c3c2)c1 (stereo not drawn) [Compound D273] | 10 to 40
